US20210371817A1, “COMPOSITIONS AND METHODS FOR PRECISE PATTERNING OF POSTERIOR NEUROECTODERM FROM HUMAN PLURIPOTENT STEM CELLS” (WISCONSIN ALUMNI RESEARCH FOUNDATION, priority 2013, published 2021)

Tested on: NSC cultures
Assay: Hox protein expression in NSC cultures after RA treatment (immunocytochemistry, flow cytometry)
Type: cell-based, human
Description: Assessment of neuroectoderm or mesoderm fate transition by flow cytometry. Grey histogram, IgG control; red histogram, antigen of interest. Data are presented as mean±standard deviation calculated from two biological replicates. (FIG. 8B) For experiments in panels FIGS. 8C-8F, neuromesodermal propagation was halted by removing FGF8b/CHIR 99021/GDF11 and adding RA. Assays were conducted after 4 days of RA treatment. (FIG. 8C) HOX profiles generated after RA treatment. Each gene is normalized to its maximum expression. Error bars are standard deviation calculated from duplicate reactions. (FIG. 8D) HoxB4 and HoxD10 expression in neuroepithelial cultures after RA treatment. Scale bars, 100 m. (FIG. 8E) Purity of Sox2, Pax6, HoxB4, and HoxD10 after 4 days of RA treatment. Sox2, Pax6, and HoxB4 were quantified using flow cytometry and HoxD10 was quantified by manual counting of dissociated cells ([…]). Error bars are standard deviation calculated from at least two biological replicates. […] (FIG. 8F) Motor neuron differentiation at cervical, thoracic, and lumbar spinal cord depths, where the motor neuron precursors show region-specific patterns of FoxP1, Isl1, and Hb9 co-expression. (FIG. 8G) Neuronal maturation from cervical, thoracic, and lumbar patterned NSCs, as assessed by immunocytochemistry (top panel; DAPI (blue) is overlaid in all images; Scale bars, 20 m) and RT-PCR (50 cycles; bottom panel).
FIGS. 9A-9C (FIG. 9A) provides additional data showing that RA induces a neuroectodermal fate and halts colinear HOX activation, using the neural differentiation scheme shown in FIG. 8B and representative hindbrain cultures assessed by qPCR. (FIG. 9B) Representative hindbrain cultures assessed by immunocytochemistry. (FIG. 9C) Representative hindbrain cultures assessed by flow cytometry. All data are presented as mean±S.D. and qPCR data are normalized to the time point of maximum expression for each gene. For the hindbrain cultures, HoxB1 and HoxB4 were quantified by immunocytochemistry relative to DAPI+ nuclei, while Sox2 and Pax6 were quantified by flow cytometry. Scale bars, 100 m.
Flow cytometry. Flow cytometry was conducted as described in the Examples above. Primary antibodies against Sox2 (mouse; 1:1000; Millipore), brachyury (goat; 1:200; R&D Systems), Pax6 (mouse; 1:200; DSHB), and HoxB4 (rat; 1:50; DSHB) were utilized. Samples were run on a FACSCaliber (BD Biosciences) and data were analyzed using Cyflogic software. Positive events were quantified by gating above the top 1% of species-matched IgG controls.
Immunocytochemistry. Immunocytochemistry was conducted as previously described. […]

Substance: GDF11: Growth differentiation factor 11, a TGFβ family member
- HoxD10+ cells (RA added at 120 h of neuromesodermal propagation): 0%
- HoxD10+ cells (RA added at 144 h of neuromesodermal propagation, after GDF11 treatment): 89±2%
